Results taken from ChEMBL document CHEMBL1131900, “4-Hydroxy-1-[3-(5-(1,2,4-triazol-4-yl)-1H-indol-3-yl)propyl]piperidines: selective h5-HT1D agonists for the treatment of migraine” (Bioorg Med Chem Lett, 1999).

Assays:
[1] = biological target: T1, 5-hydroxytryptamine receptor 1D (Homo sapiens, UniProt P28221); test: Ability to displace [3H]-5-HT from recombinant human 5-hydroxytryptamine 1D receptor stably expressed in CHO cells determined in vitro; assay type: cell-based
[2] = biological target: 5-hydroxytryptamine receptor 1B (Homo sapiens, UniProt P28222); test: Ability to displace [3H]5-HT from recombinant human 5-hydroxytryptamine 1B receptor stably expressed in CHO cells determined in vitro; assay type: cell-based
5-hydroxytryptamine receptor 1B, sequence (P28222 whole entry): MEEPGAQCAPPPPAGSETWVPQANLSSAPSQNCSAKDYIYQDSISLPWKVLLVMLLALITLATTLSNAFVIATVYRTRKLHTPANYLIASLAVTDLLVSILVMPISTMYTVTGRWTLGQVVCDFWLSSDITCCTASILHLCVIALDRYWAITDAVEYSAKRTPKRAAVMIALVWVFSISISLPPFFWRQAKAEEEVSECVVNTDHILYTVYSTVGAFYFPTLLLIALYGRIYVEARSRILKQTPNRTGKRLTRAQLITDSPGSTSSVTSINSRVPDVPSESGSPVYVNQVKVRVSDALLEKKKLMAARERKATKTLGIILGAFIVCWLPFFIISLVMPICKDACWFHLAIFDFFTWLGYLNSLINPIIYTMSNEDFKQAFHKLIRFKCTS

[3] = biological target: T1, 5-hydroxytryptamine receptor 1D; test: Maximum stimulation of [35S]GTP gamma-S binding expressed relative to the maximal effect produced by 5-hydroxytryptamine 1D receptor; assay type: functional
[4] = biological target: Serotonin 1 receptors; 5-HT1B & 5-HT1D (Homo sapiens) (UniProt P28222+P28221); test: Binding selectivity for h5-HT1D receptor to that of h5-HT1B receptor; assay type: protein assay
[5] = biological target: T1, 5-hydroxytryptamine receptor 1D; test: Measurement of agonist-induced [35S]-GTP gamma-S binding in CHO cells stably transfected with 5-hydroxytryptamine 1D receptor; assay type: functional, cell-based

T1 sequence (P28221 whole entry): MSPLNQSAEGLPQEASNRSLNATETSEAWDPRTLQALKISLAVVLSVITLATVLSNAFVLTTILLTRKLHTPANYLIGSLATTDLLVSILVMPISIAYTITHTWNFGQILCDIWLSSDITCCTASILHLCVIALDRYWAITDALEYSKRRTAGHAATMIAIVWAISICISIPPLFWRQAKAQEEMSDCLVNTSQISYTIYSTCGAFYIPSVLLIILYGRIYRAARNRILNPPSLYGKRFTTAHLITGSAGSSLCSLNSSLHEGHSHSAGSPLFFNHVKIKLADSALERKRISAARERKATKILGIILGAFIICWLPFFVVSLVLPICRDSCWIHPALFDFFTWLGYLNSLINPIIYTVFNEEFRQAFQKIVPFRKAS

| Compound | IC50 [1] | IC50 [2] | Activity [3] | Ratio [4] | ED50 [5] |
| --- | --- | --- | --- | --- | --- |
| OC1(CNCC2CC2)CCN(CCCc2c[nH]c3ccc(-n4cnnc4)cc23)CC1 | 4.5 nM | 57 nM |  | 13 |  |
| CC(C)(C)OC(=O)NCC1(O)CCN(CCCc2c[nH]c3ccc(-n4cnnc4)cc23)CC1 | 21 nM | 340 nM | 86% | 16 | 9.7 nM |
| CC(=O)Nc1ccc(CNCC2(O)CCN(CCCc3c[nH]c4ccc(-n5cnnc5)cc34)CC2)cc1 | 11 nM | 30 nM | 102% | 3 | 14 nM |
| OC1(CNCc2ccccn2)CCN(CCCc2c[nH]c3ccc(-n4cnnc4)cc23)CC1 | 3.2 nM | 55 nM | 96% | 17 | 3.2 nM |
| CC(C)(C)CNCC1(O)CCN(CCCc2c[nH]c3ccc(-n4cnnc4)cc23)CC1 | 7.3 nM | 85 nM |  | 12 |  |
| Cc1ccccc1CNCC1(O)CCN(CCCc2c[nH]c3ccc(-n4cnnc4)cc23)CC1 | 4 nM | 83 nM |  | 21 |  |
| CN(CC(C)(C)C)CC1(O)CCN(CCCc2c[nH]c3ccc(-n4cnnc4)cc23)CC1 | 1.8 nM | 61 nM | 60% | 34 | 1.6 nM |

These reach a lower IC50 [1]. Values come first.

| IC50 [1] | IC50 [2] | Activity [3] | Ratio [4] | ED50 [5] | Compound |
| --- | --- | --- | --- | --- | --- |
| 0.1 nM | 32 nM | 64% | 251 | 0.25 nM | OC1(Cc2ccccc2)CCN(CCCc2c[nH]c3ccc(-n4cnnc4)cc23)CC1 |
| 1.2 nM | 96 nM | 91% | 80 | 3.8 nM | CN(Cc1ccccc1)CC1(O)CCN(CCCc2c[nH]c3ccc(-n4cnnc4)cc23)CC1 |
| 0.65 nM | 19 nM | 67% | 29 | 0.9 nM | CC1(C)CCCN(CC2(O)CCN(CCCc3c[nH]c4ccc(-n5cnnc5)cc34)CC2)C1 |
| 1.35 nM | 27 nM | 79% | 20 | 1.1 nM | CN(CC1CC1)CC1(O)CCN(CCCc2c[nH]c3ccc(-n4cnnc4)cc23)CC1 |
| 0.65 nM | 30 nM | 95% | 47 | 1.7 nM | CC(C)CN(C)CC1(O)CCN(CCCc2c[nH]c3ccc(-n4cnnc4)cc23)CC1 |
| 0.45 nM | 47 nM | 79% | 106 | 2.2 nM | OC1(CNCc2ccccc2)CCN(CCCc2c[nH]c3ccc(-n4cnnc4)cc23)CC1 |
| 1.3 nM | 89 nM | 90% | 68 | 3.7 nM | Cc1ccccc1CN(C)CC1(O)CCN(CCCc2c[nH]c3ccc(-n4cnnc4)cc23)CC1 |
| 1.2 nM | 27 nM | 69% | 22 | 1.4 nM | CN(CC1CCCCC1)CC1(O)CCN(CCCc2c[nH]c3ccc(-n4cnnc4)cc23)CC1 |
